From EP0183174A2, “Substituted phenoxy urea, processes for its preparation and herbicide containing it as active ingredient” (KUMIAI CHEMICAL INDUSTRY CO., LTD., priority 1984, dated 1986)

Experiments:
smallflower flatsedge = assay: Test Example 1: herbicidal test by water treatment in a paddy field; type: in vivo, Cvperus diffcrmis L.; design: key: 5: Withered; 4.5: Herbicidal effect (or phytotoxicity) in a range of 90 to 99%; 4: Herbicidal effect (or phytotoxicity) in a range of 80 to 89%; 3.5: Herbicidal effect (or phytotoxicity) in a range of 70 to 79%; 3: Herbicidal effect (or phytotoxicity) in a range of 60 to 69%; 2.5: Herbicidal effect (or phytotoxicity) in a range of 50 to 59%; 2: Herbicidal effect (or phytotoxicity) in a range of 40 to 49%; 1.5: Herbicidal effect (or phytotoxicity) in a range of 30 to 39%; 1: Herbicidal effect (or phytotoxicity) in a range of 20 to 29%; 0.5: Herbicidal effect (or phytotoxicity) in a range of 1 to 19%; 0: No herbicidal effect (or no phytotoxicity); settings: evaluated thirty days after application
Procedure: (§1) Into each porcelain pot having a diameter of 10 cm, paddy soil was filled and puddled, and seeds of barnyardgrass (Echinochloa crus-galli L.), smallflower flatsedge, monochoria and Japanese bulrush were sown, and water was filled in a-depth of 3 cm. One day later, a predetermined amount of the wettable powder prepared in Formulation Example 3 and diluted with water was dropwise applied to the surface of the water (dose of the active ingredient: 4 kg/hectare). Thereafter, they were grown in a green house. Thirty days after the application, the herbicidal effects were evaluated in accordance with the standards as identified in Table 5.

Japanese bulrush = assay: as above; type: in vivo, Scir^pus juncoides Roxb.; design: key: 5: Withered; 4.5: Herbicidal effect (or phytotoxicity) in a range of 90 to 99%; 4: Herbicidal effect (or phytotoxicity) in a range of 80 to 89%; 3.5: Herbicidal effect (or phytotoxicity) in a range of 70 to 79%; 3: Herbicidal effect (or phytotoxicity) in a range of 60 to 69%; 2.5: Herbicidal effect (or phytotoxicity) in a range of 50 to 59%; 2: Herbicidal effect (or phytotoxicity) in a range of 40 to 49%; 1.5: Herbicidal effect (or phytotoxicity) in a range of 30 to 39%; 1: Herbicidal effect (or phytotoxicity) in a range of 20 to 29%; 0.5: Herbicidal effect (or phytotoxicity) in a range of 1 to 19%; 0: No herbicidal effect (or no phytotoxicity); settings: evaluated thirty days after application
Procedure: as §1

barnyardgrass = assay: Test Example 3: herbicidal test by upland soil treatment; type: in vivo, Echinochloa crus-galli L.; design: key: 5: Withered; 4.5: Herbicidal effect (or phytotoxicity) in a range of 90 to 99%; 4: Herbicidal effect (or phytotoxicity) in a range of 80 to 89%; 3.5: Herbicidal effect (or phytotoxicity) in a range of 70 to 79%; 3: Herbicidal effect (or phytotoxicity) in a range of 60 to 69%; 2.5: Herbicidal effect (or phytotoxicity) in a range of 50 to 59%; 2: Herbicidal effect (or phytotoxicity) in a range of 40 to 49%; 1.5: Herbicidal effect (or phytotoxicity) in a range of 30 to 39%; 1: Herbicidal effect (or phytotoxicity) in a range of 20 to 29%; 0.5: Herbicidal effect (or phytotoxicity) in a range of 1 to 19%; 0: No herbicidal effect (or no phytotoxicity); settings: evaluated twenty days after application
Excerpt: (§2) Into each plastic pot of 600 cm^2, upland soil was filled, then seeds of barnyardgrass, crabgrass, green foxtail, redroot pigweed, rice flatsedge, rice, wheat, maize, soybean, cotton and sugar beet were sown, and they were covered with soil. A predetermined amount of the wettable powder prepared from the test compound in accordance with Formulation Example 3 and diluted with water, was uniformly applied to the surface of the soil at an application rate of 1000 liter/hectare by means of a small size spray. They were grown in a greenhouse, and twenty days after the application, the herbicidal effects and phytotoxicity were evaluated in accordance with the standards as identified in Table 5.

monochoria = assay: Test Example 1: herbicidal test by water treatment in a paddy field; type: in vivo, Monochoria vaginalis Presl; design: key: 5: Withered; 4.5: Herbicidal effect (or phytotoxicity) in a range of 90 to 99%; 4: Herbicidal effect (or phytotoxicity) in a range of 80 to 89%; 3.5: Herbicidal effect (or phytotoxicity) in a range of 70 to 79%; 3: Herbicidal effect (or phytotoxicity) in a range of 60 to 69%; 2.5: Herbicidal effect (or phytotoxicity) in a range of 50 to 59%; 2: Herbicidal effect (or phytotoxicity) in a range of 40 to 49%; 1.5: Herbicidal effect (or phytotoxicity) in a range of 30 to 39%; 1: Herbicidal effect (or phytotoxicity) in a range of 20 to 29%; 0.5: Herbicidal effect (or phytotoxicity) in a range of 1 to 19%; 0: No herbicidal effect (or no phytotoxicity); settings: evaluated thirty days after application
Procedure: as §1

rice flatsedge = assay: Test Example 3: herbicidal test by upland soil treatment; type: in vivo, Cy^perus iria L.; design: key: 5: Withered; 4.5: Herbicidal effect (or phytotoxicity) in a range of 90 to 99%; 4: Herbicidal effect (or phytotoxicity) in a range of 80 to 89%; 3.5: Herbicidal effect (or phytotoxicity) in a range of 70 to 79%; 3: Herbicidal effect (or phytotoxicity) in a range of 60 to 69%; 2.5: Herbicidal effect (or phytotoxicity) in a range of 50 to 59%; 2: Herbicidal effect (or phytotoxicity) in a range of 40 to 49%; 1.5: Herbicidal effect (or phytotoxicity) in a range of 30 to 39%; 1: Herbicidal effect (or phytotoxicity) in a range of 20 to 29%; 0.5: Herbicidal effect (or phytotoxicity) in a range of 1 to 19%; 0: No herbicidal effect (or no phytotoxicity); settings: evaluated twenty days after application
Excerpt: as §2

redroot pigweed = assay: Test Example 4: herbicidal test by upland foliage treatment; type: in vivo, Amaranthus retroflexus L.
Procedure: Into each plastic pot of 120 cm^2, upland soil was filled, then seeds of barnyardgrass, crabgrass, redroot pigweed and rice flatsedge were sown, and they were grown in a greenhouse until barnyardgrass. reached 3-leaf stage. Each wettable powder prepared from the test compound in accordance with Formulation Example 3 was diluted with water to give the amount of the active ingredient corresponding to 4 kg/hectare, and the diluted solution was uniformly sprayed at an application rate of 1000 liter/hectare from the top of plants by means of a small size spray, when barnyardgrass was in the 3-leaf stage. They were grown in a greenhouse, and twenty days after the application, the herbicidal effects were evaluated in accordance with the standards as identified in Table 5.

[1] = dose of the active ingredient 4 kg/hectare, wettable powder applied to water surface one day after sowing
[2] = active ingredient 4 kg/hectare, foliage spray 1000 liter/hectare at 3-leaf stage of barnyardgrass, twenty days after application
[3] = water treatment in paddy field pot, dose of active ingredient 4 kg/hectare
[4] = upland foliage treatment, 4 kg/hectare active ingredient, sprayed at 1000 liter/hectare at barnyardgrass 3-leaf stage, evaluated twenty days after application

| Structure (SMILES) | Herbicidal effects Small flower flatsedge (smallflower flatsedge; [1]) | Herbicidal effects Japanese bulrush (Japanese bulrush; [1]) | Herbicidal effects Barnyard-grass (barnyardgrass; Dose 1 kg/HA) | Herbicidal effects Barnyard-grass (barnyardgrass; Dose 4 kg/HA) | Herbicidal effects Monochoria (monochoria; [1]) | Herbicidal effects Rice flatsedge (rice flatsedge; Dose 1 kg/HA) | Herbicidal effects Rice flatsedge (rice flatsedge; Dose 4 kg/HA) | Herbicidal effects Redroot pigweed (redroot pigweed; [2]) | Herbicidal effects Small flower flatsedge (smallflower flatsedge; [3]) | Herbicidal effects Japanese bulrush (Japanese bulrush; [3]) | Herbicidal effects Monochoria (monochoria; [3]) | Herbicidal effects Redroot pigweed (redroot pigweed; [4]) |
| --- | --- | --- | --- | --- | --- | --- | --- | --- | --- | --- | --- | --- |
| CN(C)C(=O)NOc1cc(Cl)ccc1Cl [Compound No. 1, 3-(2,5-Dichlorophenoxy)-1,1-dimethyl urea] | 5 | 5 | 5 | 5 | 5 | 5 | 5 | 4 (Herbicidal effect (or phytotoxicity) in a range of 80 to 89%) | – | – | – | – |
| CC(C)N(C)C(=O)NOc1cc(Cl)cc(Cl)c1 [Compound No. 186, 3-(3,5-Dichlorophenoxy)-1-isopropyl-1-methyl urea trichloroacetate] | – | – | 5 | 5 | – | 5 | 5 | 2 (Herbicidal effect (or phytotoxicity) in a range of 40 to 49%) | 5 | 5 | 5 | – |
| CON(C)C(=O)NOc1cc(Cl)ccc1Cl [Compound No. 242, 3-(2,5-Dichlorophenoxy)-1-methoxy-1-methyl urea] | – | – | 5 | 5 | – | 5 | 5 | – | 5 | 5 | 5 | 3 (Herbicidal effect (or phytotoxicity) in a range of 60 to 69%) |
| COCCNC(=O)NOc1cc(Cl)ccc1Cl [Compound No. 243] | – | – | 5 | 5 | – | 5 | 5 | – | 5 | 5 | 5 | 4 (Herbicidal effect (or phytotoxicity) in a range of 80 to 89%) |
